Data published in ChEMBL document CHEMBL5291721, “A preclinical secondary pharmacology resource illuminates target-adverse drug reaction associations of marketed drugs” (Nat Commun, 2023).

Legend:
Glucocorticoid receptor = biological target: T1, Glucocorticoid receptor (Homo sapiens, UniProt P04150); assay type: functional
T1 sequence (P04150 whole entry): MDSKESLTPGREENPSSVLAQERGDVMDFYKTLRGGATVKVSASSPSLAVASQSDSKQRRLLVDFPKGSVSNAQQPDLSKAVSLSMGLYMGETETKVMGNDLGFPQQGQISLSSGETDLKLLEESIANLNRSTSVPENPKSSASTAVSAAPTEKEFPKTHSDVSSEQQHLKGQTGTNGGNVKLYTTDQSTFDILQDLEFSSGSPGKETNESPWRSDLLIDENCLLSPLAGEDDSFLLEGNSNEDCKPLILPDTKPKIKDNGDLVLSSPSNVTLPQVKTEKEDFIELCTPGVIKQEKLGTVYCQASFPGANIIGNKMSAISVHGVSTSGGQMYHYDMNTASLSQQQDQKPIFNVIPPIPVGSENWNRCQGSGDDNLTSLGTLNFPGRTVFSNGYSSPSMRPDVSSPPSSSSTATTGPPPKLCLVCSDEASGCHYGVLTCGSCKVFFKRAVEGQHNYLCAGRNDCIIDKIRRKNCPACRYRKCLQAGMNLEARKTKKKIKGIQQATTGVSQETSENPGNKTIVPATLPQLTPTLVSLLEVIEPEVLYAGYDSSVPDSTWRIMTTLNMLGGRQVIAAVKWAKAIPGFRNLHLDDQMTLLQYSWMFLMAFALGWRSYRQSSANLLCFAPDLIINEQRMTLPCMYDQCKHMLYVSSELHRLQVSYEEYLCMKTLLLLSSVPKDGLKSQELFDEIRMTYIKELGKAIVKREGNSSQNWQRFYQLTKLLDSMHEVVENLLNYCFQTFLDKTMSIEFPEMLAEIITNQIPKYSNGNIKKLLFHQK

[1] = biological target: T2, Endothelin receptor type B (Homo sapiens, UniProt P24530)
T2 sequence (P24530 whole entry): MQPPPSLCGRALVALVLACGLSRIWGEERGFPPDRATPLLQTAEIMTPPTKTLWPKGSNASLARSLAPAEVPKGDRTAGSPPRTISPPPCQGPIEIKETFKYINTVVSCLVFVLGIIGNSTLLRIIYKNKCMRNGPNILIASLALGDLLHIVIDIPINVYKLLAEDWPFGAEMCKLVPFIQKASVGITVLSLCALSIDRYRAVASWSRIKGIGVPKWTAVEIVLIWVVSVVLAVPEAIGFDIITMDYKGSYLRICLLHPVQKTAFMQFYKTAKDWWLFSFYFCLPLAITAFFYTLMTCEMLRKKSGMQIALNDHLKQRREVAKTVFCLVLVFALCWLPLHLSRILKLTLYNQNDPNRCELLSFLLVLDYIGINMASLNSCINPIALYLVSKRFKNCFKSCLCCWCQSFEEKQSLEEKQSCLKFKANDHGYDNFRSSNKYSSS

Glucagon receptor = Glucagon receptor (Homo sapiens, UniProt P47871)
Glucagon receptor, sequence (P47871 whole entry): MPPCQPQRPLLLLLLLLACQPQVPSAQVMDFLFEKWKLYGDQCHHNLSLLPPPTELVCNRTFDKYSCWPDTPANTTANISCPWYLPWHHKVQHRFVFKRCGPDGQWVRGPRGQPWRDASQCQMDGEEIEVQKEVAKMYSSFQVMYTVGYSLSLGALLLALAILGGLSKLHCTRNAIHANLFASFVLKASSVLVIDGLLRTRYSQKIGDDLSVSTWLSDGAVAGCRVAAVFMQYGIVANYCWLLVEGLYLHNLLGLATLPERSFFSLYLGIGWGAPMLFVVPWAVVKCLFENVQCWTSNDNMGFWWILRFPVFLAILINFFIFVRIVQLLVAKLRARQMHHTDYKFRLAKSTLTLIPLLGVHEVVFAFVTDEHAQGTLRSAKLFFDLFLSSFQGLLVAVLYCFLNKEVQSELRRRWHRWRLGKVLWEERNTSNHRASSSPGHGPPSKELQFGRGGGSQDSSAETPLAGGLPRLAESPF

[2] = biological target: T3, Muscarinic acetylcholine receptor M2 (Homo sapiens, UniProt P08172)
T3 sequence (P08172 whole entry): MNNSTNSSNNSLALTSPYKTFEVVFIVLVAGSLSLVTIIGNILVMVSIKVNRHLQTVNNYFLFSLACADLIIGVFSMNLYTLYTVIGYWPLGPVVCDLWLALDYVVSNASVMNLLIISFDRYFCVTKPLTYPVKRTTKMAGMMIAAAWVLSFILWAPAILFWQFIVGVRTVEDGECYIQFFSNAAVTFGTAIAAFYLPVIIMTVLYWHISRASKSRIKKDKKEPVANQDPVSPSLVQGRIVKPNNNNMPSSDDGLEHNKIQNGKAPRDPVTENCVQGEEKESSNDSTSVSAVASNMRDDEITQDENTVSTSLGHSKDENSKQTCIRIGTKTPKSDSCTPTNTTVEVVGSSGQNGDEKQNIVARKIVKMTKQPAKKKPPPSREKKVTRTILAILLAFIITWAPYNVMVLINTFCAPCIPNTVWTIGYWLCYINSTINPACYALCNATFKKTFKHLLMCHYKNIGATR

[3] = biological target: T4, Corticotropin-releasing factor receptor 2 (Homo sapiens, UniProt Q13324)
T4 sequence (Q13324 whole entry): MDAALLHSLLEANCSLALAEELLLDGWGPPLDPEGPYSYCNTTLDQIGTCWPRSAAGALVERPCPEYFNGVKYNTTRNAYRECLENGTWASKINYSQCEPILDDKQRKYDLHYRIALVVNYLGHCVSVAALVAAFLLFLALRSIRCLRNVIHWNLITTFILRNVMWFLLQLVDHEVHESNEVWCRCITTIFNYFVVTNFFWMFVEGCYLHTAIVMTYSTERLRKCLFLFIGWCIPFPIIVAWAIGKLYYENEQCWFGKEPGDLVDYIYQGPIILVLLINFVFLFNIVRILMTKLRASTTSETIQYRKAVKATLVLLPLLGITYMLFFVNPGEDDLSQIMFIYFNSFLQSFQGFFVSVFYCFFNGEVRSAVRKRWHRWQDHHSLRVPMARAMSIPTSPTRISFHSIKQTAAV

Estrogen receptor beta = Estrogen receptor beta (Homo sapiens, UniProt Q92731)
Estrogen receptor beta, sequence (Q92731 whole entry): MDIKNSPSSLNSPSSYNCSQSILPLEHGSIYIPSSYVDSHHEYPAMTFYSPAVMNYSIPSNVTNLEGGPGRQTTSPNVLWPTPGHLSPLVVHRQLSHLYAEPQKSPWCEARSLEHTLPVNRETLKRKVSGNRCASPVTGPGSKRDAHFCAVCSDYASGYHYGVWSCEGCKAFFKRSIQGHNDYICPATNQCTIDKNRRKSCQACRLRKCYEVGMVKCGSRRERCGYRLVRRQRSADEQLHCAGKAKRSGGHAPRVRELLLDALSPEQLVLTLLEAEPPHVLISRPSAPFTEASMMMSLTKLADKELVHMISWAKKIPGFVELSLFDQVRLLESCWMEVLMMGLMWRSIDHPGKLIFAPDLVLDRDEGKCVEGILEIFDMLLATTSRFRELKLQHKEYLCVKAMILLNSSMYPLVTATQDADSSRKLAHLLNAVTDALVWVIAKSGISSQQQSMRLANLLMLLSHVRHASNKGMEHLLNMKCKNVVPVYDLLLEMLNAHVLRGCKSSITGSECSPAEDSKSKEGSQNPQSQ

[4] = biological target: T5, Gastric inhibitory polypeptide receptor (Homo sapiens, UniProt P48546)
T5 sequence (P48546 whole entry): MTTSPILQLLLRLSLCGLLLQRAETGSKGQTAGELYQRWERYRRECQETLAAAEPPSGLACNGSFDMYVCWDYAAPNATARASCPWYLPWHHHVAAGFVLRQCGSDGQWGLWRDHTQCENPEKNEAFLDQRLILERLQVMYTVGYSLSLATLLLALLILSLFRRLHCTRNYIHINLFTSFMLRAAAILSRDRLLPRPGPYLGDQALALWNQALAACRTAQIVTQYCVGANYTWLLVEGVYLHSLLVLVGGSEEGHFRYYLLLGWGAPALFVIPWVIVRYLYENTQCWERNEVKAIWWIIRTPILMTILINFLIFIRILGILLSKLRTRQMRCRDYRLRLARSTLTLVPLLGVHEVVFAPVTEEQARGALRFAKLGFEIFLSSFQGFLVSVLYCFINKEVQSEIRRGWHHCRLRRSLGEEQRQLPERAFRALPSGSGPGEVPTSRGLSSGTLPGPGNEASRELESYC
Also: assay procedure not described here.

Compound | AC50 (Glucocorticoid receptor) | AC50 [1] | AC50 (Glucagon receptor) | AC50 [2] | AC50 [3] | AC50 (Estrogen receptor beta) | AC50 [4]
CN1CCCC(n2nc(Cc3ccc(Cl)cc3)c3ccccc3c2=O)CC1 (stereo not drawn) [AZELASTINE] | > 30 µM | – | – | – | – | – | –
O=C(CCCCCCC(=O)Nc1ccccc1)NO [VORINOSTAT] | – | > 10 µM | > 10 µM | > 10 µM | – | – | –
CCC[C@@H]1C[C@@H](C(=O)N[C@@H]([C@H]2O[C@H](SC)[C@H](O)[C@@H](O)[C@H]2O)[C@H](C)Cl)N(C)C1 [CLINDAMYCIN] | – | > 30 µM | > 30 µM | > 10 µM | > 30 µM | > 30 µM | > 30 µM
CC(C(=O)O)c1ccc(N2CC=CC2)c(Cl)c1 (stereo not drawn) [PIRPROFEN] | – | > 30 µM | > 30 µM | > 10 µM | > 30 µM | > 30 µM | > 30 µM
CC(C)Cc1ccc(CC(=O)O)cc1 [IBUFENAC] | > 30 µM | – | – | – | – | – | –
C[C@H]1O[C@H](O[C@H]2[C@H](O)[C@@H](O)[C@@H](O[C@H]3[C@H](O)[C@@H](O)C(O)O[C@@H]3CO)O[C@@H]2CO)[C@H](O)[C@@H](O)[C@@H]1N[C@H]1C=C(CO)[C@@H](O)[C@H](O)[C@H]1O (stereo partly drawn) [ACARBOSE] | – | > 30 µM | > 30 µM | > 10 µM | > 30 µM | > 30 µM | > 30 µM
CCc1ccc(CCOc2ccc(CC3SC(=O)NC3=O)cc2)nc1 (stereo not drawn) [PIOGLITAZONE] | – | > 30 µM | > 30 µM | – | > 30 µM | > 30 µM | > 30 µM
NC(N)=Nc1nc(CSCCC(N)=NS(N)(=O)=O)cs1 [FAMOTIDINE] | – | > 30 µM | > 30 µM | > 10 µM | > 30 µM | – | > 30 µM
Oc1ncnc2[nH]ncc12 [ALLOPURINOL] | – | > 30 µM | > 30 µM | > 10 µM | > 30 µM | > 30 µM | > 30 µM
NC(=O)c1cnccn1 [PYRAZINAMIDE] | – | > 30 µM | > 30 µM | – | > 30 µM | > 30 µM | > 30 µM
Cc1ccc(C(=O)c2cc(O)c(O)c([N+](=O)[O-])c2)cc1 [TOLCAPONE] | > 30 µM | – | – | – | – | – | –
COc1ccc2c(c1)C(=O)N(CCc1ccc(S(=O)(=O)NC(=O)NC3CCCCC3)cc1)C(=O)C2(C)C [GLIQUIDONE] | 8.9 µM | – | – | – | – | – | –
CC(=O)c1ccc2c(c1)N(CCCN1CCN(CCO)CC1)c1ccccc1S2 [ACETOPHENAZINE] | > 30 µM | – | – | – | – | – | –
COc1cc2c(cc1OC)C(=O)C(CC1CCN(Cc3ccccc3)CC1)C2 (stereo not drawn) [DONEPEZIL] | – | > 30 µM | > 30 µM | – | > 30 µM | > 30 µM | > 30 µM
O=C(NC[C@H]1CN(c2ccc(N3CCOCC3=O)cc2)C(=O)O1)c1ccc(Cl)s1 [RIVAROXABAN] | > 30 µM | – | – | – | – | – | –
